Data from US6635615B1, “Stable salts of S-adenosyl-l-methionine” (priority 1999, dated 2003).

Experiments:
[1] = Stability on storage at room temperature, HPLC analysis of SAM-e concentration; type: physicochemical
From the text: SAM-e-1, 4-butane-disulphonate and chitosan salt of SAM-e 1, 4-butane-disulphonate were stored at room temperature, in a closed, clear glass vial at constant humidity. HPLC analysis done according to Bottligleri, T. (1990) Isocratic high performance liquid chromatographic analysis of S-adenosylmethionine and S-adenosylhomocysteine in animal tissues: the effect of exposure to nitrous oxide. Biomed Chromatogr, 4(6):239-41.
Stability study-of polycation (chitosan) salt of SAM-e tosylate
SAM-e tosylate and chitosan salt of SAM-e tosylate were stored at room temperature, in a closed, clear glass vial at constant humidity. HPLC analysis done according to Bottligleri, T. (1990) Isocratic high performance liquid chromatographic analysis of S-adenosylmethionine and S-adenosylhomocysteine in animal tissues: the effect of exposure to nitrous oxide. Biomed Chromatogr, 4(6):239-41.

[2] = oral; patients with and without liver disease; cited from earlier work
[3] = preliminary study; cited from earlier work
[4] = oral; patients with intrahepatic cholestasis; cited from earlier work
[5] = oral; alcoholic liver cirrhosis; compared with a placebo treated group; cited from earlier work
[6] = oral; short term trial; cited from earlier work

## C[S+](CC[C@H](N)C(=O)O)C[C@H]1O[C@@H](n2cnc3c(N)ncnc32)[C@H](O)[C@@H]1O.Cc1ccc(S(=O)(=O)[O-])cc1 (stereo partly drawn) [SAM-e tosylate]
[1]; Example 11, text, room temperature storage Dec. 28, 1999 to Apr. 4, 2000
  deteriorated by (over the period of time): 92.9%
[1]; Example 11, first analysis Dec. 28, 1999, 0.5 mg/ml, dilution 1:125, HPLC
  Analysis: Dec. 28, 1999 Concentration 0.5 mg/ml 1:125: 3492 nmol/L
[1]; Example 11, second analysis Apr. 4, 2000, stored at room temperature, closed clear glass vial, constant humidity, 0.5 mg/ml, 1:125
  Analysis: Apr. 4, 2000 Concentration 0.5 mg/ml 1:125: 247.9 nmol/L

## C[S+](CC[C@H](N)C(=O)[O-])C[C@H]1O[C@@H](n2cnc3c(N)ncnc32)[C@H](O)[C@@H]1O (stereo partly drawn) [SAM-e, S-adenosyl-1-methionine]
[2]
  liver glutathione levels: increases in liver glutathione levels
[3]
  cognitive effect in patients with Alzheimer's disease: cognitive improvement
[4]
  pruritus and biochemical markers of cholestasis: improvements in both the pruritus as well as the biochemical markers of cholestasis
[5]
  overall mortality and/or progression to liver transplant: 29% vs 12%
[6]
  clinical effect in primary fibromyalgia: significant improvement

## C[S+](CC[C@H](N)C(=O)[O-])C[C@H]1O[C@@H](n2cnc3c(N)ncnc32)[C@H](O)[C@@H]1O.O=S(=O)(O)CCCCS(=O)(=O)O (stereo partly drawn) [SAM-e-1,4-butane-disulphonate]
[1]; Example 10, text, room temperature storage May 11, 2000 to Aug. 22, 2000
  deteriorated by (over the period of time): 43%
[1]; Example 10, May 11, 2000 to Aug. 22, 2000, room temperature, closed clear glass vial, constant humidity
  % Change: −43.9%
[1]; Example 10, first analysis May 11, 2000, dilution 1:500, HPLC
  Analysis: May 11, 2000 Concentration 1:500: 1417.96 nmol/L
[1]; Example 10, second analysis Aug. 22, 2000, stored at room temperature, closed clear glass vial, constant humidity, dilution 1:500
  Analysis: Aug. 22, 2000 Concentration 1:500: 794.41 nmol/L
